Data on ten molecules can be found in US20240043386A1, “Modulators of the Cystic Fibrosis Transmembrane Conductance Regulator Protein and Methods of Use” (AbbVie Global Enterprises Ltd., priority 2021, published 2024).

Molecules are shown by their SMILES. Read-outs that look alike come from different tables or passages of the source.

One assay has as its target T1, F508del/F508del CFTR (Homo sapiens, UniProt P13569, DEL508-508).
T1 construct: cells isolated from CF patients with the homozygous mutation; endogenous in cells; host or cells: primary human bronchial epithelial (hBE) cells from CF patients homozygous for F508del
Kind of assay: Trans-Epithelial Current Clamp (TECC) assay using primary human bronchial epithelial cells. Type of assay: cell-based. The settings on record: for Emax (% Dual): maximum percent activity relative to positive control (co-corrector 0.15 μM + potentiator 0.45 μM = 100%), primary hBE cells F508del/F508del; for EC50: primary hBE cells homozygous F508del/F508del, test C2 corrector with co-corrector and potentiator, 18-24 hours at 37° C., equivalent CFTR current (IEQ)/AUC. From the text: A cell-based assay was developed using the primary human bronchial epithelial cells (hBE cells) with F508del/F508del CFTR and other mutations.
Primary human bronchial epithelial (hBE) cells from CFTR patients with homozygous F508del/F508del mutation were expanded from 1×10^6 to 250×10^6 cells (Neuberger, T et al., 2011, Methods Mol Biol 741:39-54). For this purpose, cells isolated from CF patients with the homozygous mutation, procured from the CF center tissue procurement and cell culture core at the Marsico Lung Institute at UNC (Randell), the Cystic Fibrosis translational research center at McGill University (University), and Rosalind Franklin University Medical School (RFUMS) were seeded onto 24 well Corning (Cat #3378) filter plates that were coated with 3T3 conditioned media and grown at an air-liquid interface for 35 days using an Ultroser® G supplemented differentiation media. All the primary human bronchial epithelial cells were collected in accordance with institutional review board approval protocols. Apical surface mucus was removed 72 hours before the experiment by incubating the apical surface of the cells for 30 minutes with 3 mM dithiothreitol (DTT) prepared in Dulbecco's phosphate buffered saline (DPBS) with Ca^2+ and Mg^2+. This was followed with aspiration of the mucus from the apical surface along with DPBS. The apical surface was re-washed with phosphate buffered saline (PBS) incubated for 30 minutes followed with aspiration. These hBE cells were then incubated with the desired concentrations of the test C2 corrector compounds along with co-corrector, 4-[(2R,4R)-4-({[1-(2,2-difluoro-1,3-benzodioxol-5-yl)cyclopropyl]carbonyl}amino)-7-(difluoromethoxy)-3,4-dihydro-2H-chromen-2-yl]benzoic acid and potentiator, (5-{3-amino-5-[4-(trifluoromethoxy)benzene-1-sulfonyl]pyridin-2-yl}-1,3,4-oxadiazol-2-yl)methanol, for 18-24 hours at 37° C., 5% CO2. The desired concentrations of the correctors and potentiator compounds were prepared from the 10 mM stocks in differentiation media and were always applied on the basolateral side of the epithelial cells. We also used an assay format where a fixed concentration of potentiator was added chronically along with the corrector compounds. This chronic treatment with the potentiator helped eliminate any interaction that might happen with CFTR modulators (correctors and potentiators) and thereby determined the true efficacy of the modulator combinations reflective of clinical relevance.
The assay uses a Transepithelial Current Clamp (TECC) (Vu, C B et al., 2017; J Med Chem 60:458-473) instrument that can measure the functionality of the mutated channel by measuring the equivalent CFTR current (IEQ) generated by the polarized primary epithelial cells. We used a TECC-24 with a 24-channel electrode manifold allowing for the simultaneous measurement of the transepithelial voltage, VT, and transepithelial resistance, RT, under current clamp conditions, from 24 filters using a 24 well Costar filter plate. The design of the filters in the 24 well filter plates was exactly the same as the design of an individual Transwell filter used in the classical Ussing Chamber with a surface area of 0.33 cm^2. Each measured VT values were corrected for the electrode offset potential measured using buffer alone in a separate plate, and each measured RT values were then corrected for the combined solution series and empty filter resistances. The corrected VT and RT values were then used to calculate the equivalent current, IEQ using Ohm's law (IEQ=VT/RT). The area under the curve (AUC) for the time period between the forskolin peak IEQ response and at the time of bumetanide addition was also calculated using a one-third trapezoid method, in addition to calculating the IEQ. The assay was run in a 24-well format and all 24-wells were measured at the same time point giving a higher throughput for this assay. […]

A further assay concerns the target T2, F508delCFTR (Homo sapiens, UniProt P13569, DEL508-508).
T2 construct: expressed in transfected cells; host or cells: CFBE41o- human lung-derived epithelial cell line, doxycycline-inducible expression
Kind of assay: Cell Surface Expression-Horse Radish Peroxidase (CSE-HRP) assay in CFBE41o-F508delCFTR-HRP cells. In kind it is cell-based. The settings on record: for EC50: CFBE41o-F508delCFTR-HRP cells, 18-24 hours at 33° C., luminescence; for Maximum % activity (without co-corrector) / Maximum % activity (with co-corrector): normalized to on-plate positive control corrector (2 μM). The protocol: A cellular assay for measuring the F508delCFTR cell surface expression after correction with test compounds either without or with a co-corrector (2 μM of 3-[(2R,4R)-4-({[1-(2,2-difluoro-1,3-benzodioxol-5-yl)cyclopropyl]carbonyl}amino)-7-methoxy-3,4-dihydro-2H-chromen-2-yl]benzoic acid), was developed in human lung derived epithelial cell line (CFBE4lo-) (Veit G et al, (2012) Mol Biol Cell. 23(21): 4188-4202). The development was achieved by expressing the F508delCFTR mutation along with a horseradish peroxidase (HRP) in the fourth exofacial loop, and then measuring the HRP activity using luminescence readout from these cells, CFBE4lo-F508delCFTR-HRP, that were incubated overnight with the test corrector compounds, either without or with the co-corrector. For this primary assay, the CFBE4lo-F508delCFTR-HRP cells were plated in 384-well plates (Greiner Bio-one; Cat 781080) at 4,000 cells/well along with 0.5 μg/mL doxycycline to induce the F508delCFTR-RP expression and further incubated at 37° C., 5% CO2 for 68-72 hours. The test compounds were then added either without or with a co-corrector at the required concentrations and further incubated for 18-24 hours at 33° C. The highest concentration tested was 20 μM or 30 μM (GI-1 to GIII-36) with an 8-point concentration response curve using a 3-fold dilution in both the test compound without or with the co-corrector. Three replicate plates were run to determine one EC50. All plates contained negative controls (dimethyl sulfoxide, DMSO) and positive control (2 μM or 3 μM (GI-1 to GIII-36) of 3-[(2R,4R)-4-({[1-(2,2-difluoro-1,3-benzodioxol-5-yl)cyclopropyl]carbonyl}amino)-7-methoxy-3,4-dihydro-2H-chromen-2-yl]benzoic acid) as well as on-plate concentration response of the positive control. Post incubation, the plates were washed 5× times with Dulbecco's phosphate buffered saline (DPBS), followed by the addition of the HRP substrate, luminol (50 μL), and measuring the HRP activity using luminescence readout on EnVision® Multilabel Plate Reader (Perkin Elmer; product number 2104-0010). The raw counts from the experiment were analyzed using Accelrys® Assay Explorer v3.3.
Z′ greater than 0.5 was used as passing quality control criteria for the plates. The Z′ is defined as:
1−[3*SDPositive Control+3*SDNegative Control/Absolute (MeanPositive Control−MeanNegative Control)]
The % activity measured at each of the 8 test concentrations of the test compound added either without or with a co-corrector (2 μM or 3 μM (GI-1 to GIII-36) of 3-[(2R,4R)-4-({[1-(2,2-difluoro-1,3-benzodioxol-5-yl)cyclopropyl]carbonyl}amino)-7-methoxy-3,4-dihydro-2H-chromen-2-yl]benzoic acid) was normalized to the on-plate positive control using the following formulae:
% activity (Test compound without co-corrector)=[(test compound without co-corrector response−DMSO response)/(positive control response−DMSO response)]*100
% activity (Test compound with co-corrector)=[(test compound with co-corrector response−DMSO response)/(positive control response−DMSO response)]*100
The maximum % activity achieved for the test compound either without or with a co-corrector at any tested concentration is presented in Table 3 along with the respective EC50's calculated using the following general sigmoidal curve with variable Hill slope equation (described as Model 42 in the Accelrys® Assay Explorer v3.3 software):
General sigmoidal curve with concentration, response, top, bottom, EC50 and Hill slope. This model describes a sigmoidal curve with an adjustable baseline, a. The equation can be used to fit curves where response is either increasing or decreasing with respect to the independent variable, “x”.

The mark [1] stands for this setting: with co-corrector (2 μM), read-out: EC50 (with co-corrector).
Where [2] appears, read: without co-corrector, read-out: EC50 (without co-corrector).

T2 sequence (P13569 with tags, fused parts or gaps DEL508-508): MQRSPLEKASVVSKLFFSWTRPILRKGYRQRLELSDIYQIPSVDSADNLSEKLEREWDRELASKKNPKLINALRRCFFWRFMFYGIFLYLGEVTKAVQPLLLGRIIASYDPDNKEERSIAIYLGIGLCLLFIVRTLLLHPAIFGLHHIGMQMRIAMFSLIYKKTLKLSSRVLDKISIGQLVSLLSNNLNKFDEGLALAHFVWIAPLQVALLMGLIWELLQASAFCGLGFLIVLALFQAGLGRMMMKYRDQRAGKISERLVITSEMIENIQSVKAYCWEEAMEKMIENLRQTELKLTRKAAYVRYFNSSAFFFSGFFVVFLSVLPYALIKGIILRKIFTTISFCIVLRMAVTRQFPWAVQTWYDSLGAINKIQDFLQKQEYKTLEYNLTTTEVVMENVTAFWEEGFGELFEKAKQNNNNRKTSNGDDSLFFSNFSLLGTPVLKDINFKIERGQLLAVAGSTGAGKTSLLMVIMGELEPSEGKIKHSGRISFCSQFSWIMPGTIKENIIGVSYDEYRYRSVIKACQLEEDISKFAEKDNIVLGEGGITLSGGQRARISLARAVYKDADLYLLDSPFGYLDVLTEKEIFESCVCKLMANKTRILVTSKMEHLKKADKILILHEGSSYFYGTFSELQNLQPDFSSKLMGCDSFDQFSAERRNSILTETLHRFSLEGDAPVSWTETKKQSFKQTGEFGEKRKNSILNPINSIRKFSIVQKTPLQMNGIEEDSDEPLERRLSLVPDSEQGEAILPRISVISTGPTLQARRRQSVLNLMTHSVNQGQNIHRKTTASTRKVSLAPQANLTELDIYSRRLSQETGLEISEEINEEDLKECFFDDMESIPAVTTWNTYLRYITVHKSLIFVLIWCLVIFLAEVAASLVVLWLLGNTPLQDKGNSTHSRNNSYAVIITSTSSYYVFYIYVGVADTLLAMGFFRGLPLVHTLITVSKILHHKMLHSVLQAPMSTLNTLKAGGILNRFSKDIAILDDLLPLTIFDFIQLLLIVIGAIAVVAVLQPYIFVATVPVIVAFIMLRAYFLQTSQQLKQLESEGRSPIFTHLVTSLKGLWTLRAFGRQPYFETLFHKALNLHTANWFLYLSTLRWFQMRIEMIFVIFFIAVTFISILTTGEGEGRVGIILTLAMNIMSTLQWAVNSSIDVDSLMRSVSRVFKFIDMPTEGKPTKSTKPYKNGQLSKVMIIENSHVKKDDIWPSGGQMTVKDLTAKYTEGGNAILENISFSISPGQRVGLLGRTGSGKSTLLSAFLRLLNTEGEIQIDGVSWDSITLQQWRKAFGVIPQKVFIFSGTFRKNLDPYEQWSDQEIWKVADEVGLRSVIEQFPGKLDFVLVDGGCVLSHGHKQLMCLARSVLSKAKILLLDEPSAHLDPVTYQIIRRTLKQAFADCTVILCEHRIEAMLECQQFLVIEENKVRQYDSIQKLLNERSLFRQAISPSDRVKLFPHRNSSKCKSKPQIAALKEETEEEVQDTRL
T1 sequence (P13569 with tags, fused parts or gaps DEL508-508): as above

As usually defined, the EC50 is the concentration at which the effect is half-maximal. As for `COc1ccc([C@H]2C[C@@]2(C(=O)NS(=O)(=O)c2cccc3nc(C)ccc23)c2cc(C)ccc2OC)c(C)n1` [Example 72, (1S,2R)-1-(2-methoxy-5-methylphenyl)-2-(6-methoxy-2-methylpyridin-3-yl)-N-(2-methylquinoline-5-sulfonyl)cyclopropane-1-carboxamide], the “Emax (% Dual)” value at F508del/F508del CFTR was 359 % Dual. Also, the values for the EC50 at F508del/F508del CFTR, at F508delCFTR (setting [1]) and at F508delCFTR (setting [2]) were 13.6 nM, 1540 nM and 3330 nM, respectively. Further, the “Maximum % activity (without co-corrector)” value on F508delCFTR (without co-corrector) is reported as 651%.
The corresponding values for `COc1ccc(C)cc1[C@@]1(C(=O)NS(=O)(=O)c2cccc3nc(C)ccc23)C[C@H]1c1ccc(C(C)C)nc1OC` (single isomer, unassigned) [Example 87] are 271 % Dual, 6.9 nM, 165 nM, 452 nM and 881%.
The like results for `COc1ccc(C)cc1[C@]1(C(=O)NS(=O)(=O)c2cccc3nc(C)ccc23)C[C@@H]1c1cccnc1OC` (single isomer, unassigned) [Example 50] were, in that order, 359 % Dual, 5.2 nM, 954 nM, 2340 nM and 951%.
For `COc1cccc([C@@H]2C[C@]2(C(=O)NS(=O)(=O)c2cccc3nc(C)ccc23)c2cc(C)ccc2OC)c1` (single isomer, unassigned) [Example 27], the “Emax (% Dual)” value on F508del/F508del CFTR was 275 % Dual. The results for the EC50 at F508del/F508del CFTR, at F508delCFTR (setting [1]) and on F508delCFTR (setting [2]) were 15.7 nM, 429 nM and 405 nM, respectively. Also, the “Maximum % activity (without co-corrector)” value on F508delCFTR (without co-corrector) came to 465%.
As for `COc1cnc([C@@H]2C[C@]2(C(=O)NS(=O)(=O)c2cccc3nc(C)ccc23)c2cc(C)ccc2OC)cn1` (single isomer, unassigned) [Example 47], the “Emax (% Dual)” value on F508del/F508del CFTR came to 247 % Dual. The half-maximal effective concentration (EC50) on F508del/F508del CFTR was 85.2 nM; on F508delCFTR (setting [1]) it was 1280 nM; on F508delCFTR (setting [2]), 2210 nM. In addition, the “Maximum % activity (with co-corrector)” value at F508delCFTR (with co-corrector (2 μM)) was 775%. Moreover, on F508delCFTR (without co-corrector), the “Maximum % activity (without co-corrector)” value is given as 322%.
Regarding `COc1ccc(C)cc1[C@]1(C(=O)NS(=O)(=O)c2cccc3nc(C)ccc23)C[C@@H]1c1ccc(C)nc1OC` (single isomer, unassigned) [Example 86], on F508del/F508del CFTR, the “Emax (% Dual)” value came to 176 % Dual. In addition, the figures for the concentration giving a half-maximal response (EC50) on F508del/F508del CFTR, at F508delCFTR (setting [1]) and on F508delCFTR (setting [2]) were 24.1 nM, 1440 nM and 2210 nM, respectively.
Regarding `CCOc1nc(C2C[C@@]2(C(=O)NS(=O)(=O)c2cccc3nc(C)ccc23)c2cc(C)ccc2OC)ccc1F` (stereo in doubt) [Example 106, (1S,2S)-2-(6-ethoxy-5-fluoropyridin-2-yl)-1-(2-methoxy-5-methylphenyl)-N-(2-methylquinoline-5-sulfonyl)cyclopropane-1-carboxamide], on F508del/F508del CFTR, the “Emax (% Dual)” value amounted to 188 % Dual and the EC50 came out at 11.6 nM. Moreover, on F508delCFTR (setting [1]), the EC50 was determined as 222 nM.
For the molecule `COc1ccc(C)cc1[C@]1(C(=O)NS(=O)(=O)c2cccc3nc(C)ccc23)C[C@@H]1c1ccc(C)cc1` (single isomer, unassigned) [Example 7], on F508del/F508del CFTR, the “Emax (% Dual)” value is listed as 487 % Dual. Further, the EC50 was 0.8 nM on F508del/F508del CFTR, 926 nM at F508delCFTR (setting [1]) and 1450 nM at F508delCFTR (setting [2]).
The corresponding values for `COc1ccc(C)cc1[C@]1(C(=O)NS(=O)(=O)c2cccc3nc(C)ccc23)C[C@@H]1c1cccc(C(F)(F)F)c1` (racemic) [Example 12, rac-(1r,2s)-1-(2-methoxy-5-methylphenyl)-N-(2-methylquinoline-5-sulfonyl)-2-[3-(trifluoromethyl)phenyl]cyclopropane-1-carboxamide] are 407 % Dual, 0.51 nM, 327 nM and 479 nM.
Turning to `COc1cncc([C@@H]2C[C@]2(C(=O)NS(=O)(=O)c2cccc3nc(C)ccc23)c2cc(C)ccc2OC)c1` (single isomer, unassigned) [Example 51], the “Emax (% Dual)” value at F508del/F508del CFTR was found to be 135 % Dual. Also, the 50% effective concentration (EC50) is greater than 300 nM at F508del/F508del CFTR, 4380 nM on F508delCFTR (setting [1]) and 5440 nM on F508delCFTR (setting [2]). For the same molecule, the “Maximum % activity (with co-corrector)” value at F508delCFTR (with co-corrector (2 μM)) was 406%. Further, the “Maximum % activity (without co-corrector)” value at F508delCFTR (without co-corrector) came to 108%.
